In patent publication US20250339569A1, “CARBONIC ANHYDRASE IX LIGANDS” (priority 2021, published 2025):
Starred links: 1 amine or outer side, 2 acyl side, 3 side chain; linkers in the order of their positions; H or OH if unused. Positions of bridges follow the written chain, without caps; N, C: chain ends. Non-standard residues stand in square brackets, D forms with d. Residues, ends and D or L forms follow the SMILES beside them. ξ: configuration not given here. *: point of attachment. X3 = O=C(O)CN1CCN(CC(=O)O)CCN(CC(=O)NCCCOCCOCCOCCCN*)CCN(CC(=O)O)CC1; Trp(5-Cl) = N[C@@H](Cc1c[nH]c2ccc(Cl)cc12)C(=O)O; Trp(5-OH) = N[C@@H](Cc1c[nH]c2ccc(O)cc12)C(=O)O; ξTrp(5-Me) = Cc1ccc2[nH]cc(CC(N)C(=O)O)c2c1; mXylylene = c1cc(C[*:1])cc(C[*:2])c1; Hydrocinnamoyl = O=C(CCc1ccccc1)*; tBuAla = CC(C)(C)C[C@H](N)C(=O)O; Pen = CC(C)(S)[C@H](N)C(=O)O; Suc = O=C(CCC(=O)[*:2])[*:1]; Tle = CC(C)(C)[C@H](N)C(=O)O; Isovaleryl = CC(C)CC(=O)*; Hexanoyl = CCCCCC(=O)*; PhAc = O=C(Cc1ccccc1)*; Bz = O=C(c1ccccc1)*; Sar = CNCC(=O)O

These compounds were tested against T1, CAIX-expressing human HT-29 colorectal cancer cells (Homo sapiens, UniProt Q16790) (assay: FACS binding assay (IC50 determination, competition with tracer 3BP-2776 or 3BP-4149)). Conditions: not given.
T1 construct: CAIX-expressing human HT-29 colorectal cancer cells; host or cells: HT-29 human colorectal cancer cells
Method: In order to determine binding of compounds according to the present invention to CAIX-expressing cells, a FACS binding assay was established.
CAIX-expressing human HT-29 colorectal cancer cells (DSMZ, RRID: CVCL_0320) were cultured in McCoys's 5A modified medium (Biochrom, #F1015) including 10% fetal calf serum (FCS), 2 mM L-glutamine, 100 U/ml penicillin and 100 μg/mL streptomycin. Cells were detached with Accutase (Biolegend, #423201) and washed in FACS buffer (PBS including 1% FCS). Cells were diluted in FACS buffer to a final concentration of 500.000 cells per ml. 200 μL of the cell suspension were transferred to a u-shaped non-binding 96-well plate (Greiner) and cells were washed in ice-cold FACS buffer.
When biotinylated compounds were used an additional incubation step with 1 μg/mL APC-Streptavidin (Miltenyi; #130-106-791) in 50 μL FACS buffer for 30 minutes on ice was performed.
Cells were washed twice with ice-cold FACS buffer and analyzed in an Attune NxT flow cytometer (Thermo Fisher). Median fluorescence intensities (MFI) of the APC/Cy5-channel were calculated by Attune NxT software. MFI values were plotted against peptide concentration and four parameter logistic (4PL) curve fitting and EC50/pEC50 or IC50/pIC50 calculations were performed using ActivityBase software.

Row | Structure (SMILES) | IC50 [nM]
1 | CC(C)C[C@@H]1NC(=O)[C@H](Cc2c[nH]c3ccccc23)NC(=O)[C@H](CC(=O)O)NC(=O)CNC(=O)[C@H](CCC(=O)O)NC(=O)[C@@H](NC(=O)[C@H](Cc2ccc(O)cc2)NC(=O)[C@@H](NC(=O)c2ccccc2)C(C)C)CSCc2cccc(c2)CSC[C@@H](C(N)=O)NC(=O)[C@H](CCC(N)=O)NC(=O)[C@H](Cc2c[nH]c3ccccc23)NC(=O)[C@H]([C@@H](C)O)NC1=O [3BP-3108] (Bz-VYCEGDWLTWQC-NH2; linker 3-12 via mXylylene) | < 10
2 | CC(C)C[C@@H]1NC(=O)[C@H](Cc2c[nH]c3ccccc23)NC(=O)[C@H](CC(=O)O)NC(=O)CNC(=O)[C@H](CCC(=O)O)NC(=O)[C@@H](NC(=O)[C@H](Cc2ccc(O)cc2)NC(=O)[C@@H](NC(=O)Cc2ccccc2)C(C)C)CSCc2cccc(c2)CSC[C@@H](C(N)=O)NC(=O)[C@H](CCC(N)=O)NC(=O)[C@H](Cc2c[nH]c3ccccc23)NC(=O)[C@H]([C@@H](C)O)NC1=O [3BP-3109] (PhAc-VYCEGDWLTWQC-NH2; linker 3-12 via mXylylene) | < 10

Same assay, conditions: FACS competition on HT-29 cells, Tracer ID 3BP-2776 (10 nM, biotin-labeled), 4° C., 1 hour; read-out: pIC50 category (activity) (converted)

Row | Structure (SMILES) | IC50 [nM]
3 | CC(=O)N[C@H](C(=O)N[C@@H](Cc1ccc(O)cc1)C(=O)N[C@H]1CSCc2cccc(c2)CSC[C@@H](C(N)=O)NC(=O)[C@H](CCC(N)=O)NC(=O)[C@H](Cc2c[nH]c3ccccc23)NC(=O)[C@H]([C@@H](C)O)NC(=O)[C@H](CC(C)(C)C)NC(=O)[C@H](Cc2c[nH]c3ccccc23)NC(=O)[C@H](CC(=O)O)NC(=O)CNC(=O)[C@H](CCC(=O)O)NC1=O)C(C)C [3BP-3065] (Ac-VYCEGDW[tBuAla]TWQC-NH2; linker 3-12 via mXylylene) | < 10
4 | CCCCCC(=O)N[C@H](C(=O)N[C@@H](Cc1ccc(O)cc1)C(=O)N[C@H]1CSCc2cccc(c2)CSC[C@@H](C(N)=O)NC(=O)[C@H](CCC(N)=O)NC(=O)[C@H](Cc2c[nH]c3ccccc23)NC(=O)[C@H]([C@@H](C)O)NC(=O)[C@H](CC(C)C)NC(=O)[C@H](Cc2c[nH]c3ccccc23)NC(=O)[C@H](CC(=O)O)NC(=O)CNC(=O)[C@H](CCC(=O)O)NC1=O)C(C)C [3BP-3107] (Hexanoyl-VYCEGDWLTWQC-NH2; linker 3-12 via mXylylene) | < 10
5 | CC(C)C[C@@H]1NC(=O)[C@H](Cc2c[nH]c3ccccc23)NC(=O)[C@H](CC(=O)O)NC(=O)CNC(=O)[C@H](CCC(=O)O)NC(=O)[C@@H](NC(=O)[C@H](Cc2ccc(O)cc2)NC(=O)[C@@H](NC(=O)CCc2ccccc2)C(C)C)CSCc2cccc(c2)CSC[C@@H](C(N)=O)NC(=O)[C@H](CCC(N)=O)NC(=O)[C@H](Cc2c[nH]c3ccccc23)NC(=O)[C@H]([C@@H](C)O)NC1=O [3BP-3110] (Hydrocinnamoyl-VYCEGDWLTWQC-NH2; linker 3-12 via mXylylene) | < 10
6 | CC(C)CC(=O)N[C@H](C(=O)N[C@@H](Cc1ccc(O)cc1)C(=O)N[C@H]1CSCc2cccc(c2)CSC[C@@H](C(N)=O)NC(=O)[C@H](CCC(N)=O)NC(=O)[C@H](Cc2c[nH]c3ccccc23)NC(=O)[C@H]([C@@H](C)O)NC(=O)[C@H](CC(C)C)NC(=O)[C@H](Cc2c[nH]c3ccccc23)NC(=O)[C@H](CC(=O)O)NC(=O)CNC(=O)[C@H](CCC(=O)O)NC1=O)C(C)C [3BP-3111] (Isovaleryl-VYCEGDWLTWQC-NH2; linker 3-12 via mXylylene) | < 10
7 | CC(=O)N[C@H](C(=O)N[C@@H](Cc1ccc(O)cc1)C(=O)N[C@H]1CSCc2cccc(c2)CSC[C@@H](C(N)=O)NC(=O)[C@H](CCC(N)=O)NC(=O)[C@H](Cc2c[nH]c3ccccc23)NC(=O)[C@@H](C)NC(=O)[C@H](CC(C)C)NC(=O)[C@H](Cc2c[nH]c3ccccc23)NC(=O)[C@H](CC(=O)O)NC(=O)CN(C)C(=O)[C@H](CCC(=O)O)NC1=O)C(C)C [3BP-3309] (Ac-VYCE[Sar]DWL[dA]WQC-NH2; linker 3-12 via mXylylene) | 100 to 794

Next, values leading:

Row | IC50 [nM] | Structure (SMILES)
8 | < 10 | CC(=O)N[C@H](C(=O)N[C@@H](Cc1ccc(O)cc1)C(=O)N[C@H]1CSCc2cccc(c2)CSC(C)(C)[C@@H](C(N)=O)NC(=O)[C@H](CCC(N)=O)NC(=O)[C@H](Cc2c[nH]c3ccccc23)NC(=O)[C@H]([C@@H](C)O)NC(=O)[C@H](CC(C)C)NC(=O)[C@H](Cc2c[nH]c3ccccc23)NC(=O)[C@H](CC(=O)O)NC(=O)CNC(=O)[C@H](CCC(=O)O)NC1=O)C(C)C [3BP-3064] (Ac-VYCEGDWLTWQ[Pen]-NH2; linker 3-12 via mXylylene)
9 | 10 to 79.4 | CC(=O)N[C@H](C(=O)N[C@@H](Cc1ccc(O)cc1)C(=O)N[C@H]1CSCc2cccc(c2)CSC[C@@H](C(N)=O)NC(=O)[C@H](CCC(N)=O)NC(=O)[C@H](Cc2c[nH]c3ccccc23)NC(=O)[C@H]([C@@H](C)O)NC(=O)[C@H](C(C)(C)C)NC(=O)[C@H](Cc2c[nH]c3ccccc23)NC(=O)[C@H](CC(=O)O)NC(=O)CNC(=O)[C@H](CCC(=O)O)NC1=O)C(C)C [3BP-3066] (Ac-VYCEGDW[Tle]TWQC-NH2; linker 3-12 via mXylylene)
10 | < 10 | CC(C)C[C@@H]1NC(=O)[C@H](Cc2c[nH]c3ccccc23)NC(=O)[C@H](CC(=O)O)NC(=O)[C@@H](C)NC(=O)[C@H](CCC(=O)O)NC(=O)[C@@H](NC(=O)[C@H](Cc2ccc(O)cc2)NC(=O)[C@@H](NC(=O)CCC(=O)NCCCOCCOCCOCCCNC(=O)CN2CCN(CC(=O)O)CCN(CC(=O)O)CCN(CC(=O)O)CC2)C(C)C)CSCc2cccc(c2)CSC[C@@H](C(N)=O)NC(=O)[C@H](CCC(N)=O)NC(=O)[C@H](Cc2c[nH]c3ccccc23)NC(=O)[C@H]([C@@H](C)O)NC1=O [3BP-3270] ({X3-Suc}-VYCE[dA]DWLTWQC-NH2; linker 3-12 via mXylylene)
11 | 10 to 79.4 | CC(C)C[C@@H]1NC(=O)[C@H](Cc2c[nH]c3ccccc23)NC(=O)[C@H](CC(=O)O)NC(=O)CN(C)C(=O)[C@H](CCC(=O)O)NC(=O)[C@@H](NC(=O)[C@H](Cc2ccc(O)cc2)NC(=O)[C@@H](NC(=O)CCC(=O)NCCCOCCOCCOCCCNC(=O)CN2CCN(CC(=O)O)CCN(CC(=O)O)CCN(CC(=O)O)CC2)C(C)C)CSCc2cccc(c2)CSC[C@@H](C(N)=O)NC(=O)[C@H](C)NC(=O)[C@H](Cc2c[nH]c3ccccc23)NC(=O)[C@H]([C@@H](C)O)NC1=O [3BP-3278] ({X3-Suc}-VYCE[Sar]DWLTWAC-NH2; linker 3-12 via mXylylene)
12 | < 10 | CC(=O)N[C@H](C(=O)N[C@@H](Cc1ccc(O)cc1)C(=O)N[C@H]1CSCc2cccc(c2)CSC[C@@H](C(N)=O)NC(=O)CNC(=O)[C@H](Cc2c[nH]c3ccccc23)NC(=O)[C@H]([C@@H](C)O)NC(=O)[C@H](CC(C)C)NC(=O)[C@H](Cc2c[nH]c3ccccc23)NC(=O)[C@H](CC(=O)O)NC(=O)[C@@H](C)NC(=O)[C@H](CCC(=O)O)NC1=O)C(C)C [3BP-3284] (Ac-VYCE[dA]DWLTWGC-NH2; linker 3-12 via mXylylene)
13 | < 10 | CC(=O)N[C@H](C(=O)N[C@@H](Cc1ccc(O)cc1)C(=O)N[C@H]1CSCc2cccc(c2)CSC[C@@H](C(N)=O)NC(=O)[C@H](CCC(N)=O)NC(=O)[C@H](Cc2c[nH]c3ccccc23)NC(=O)[C@H]([C@@H](C)O)NC(=O)[C@H](CC(C)C)NC(=O)C(Cc2c[nH]c3ccc(C)cc23)NC(=O)[C@H](CC(=O)O)NC(=O)CN(C)C(=O)[C@H](CCC(=O)O)NC1=O)C(C)C (some centres unmarked) [3BP-3290] (Ac-VYCE[Sar]D[ξTrp(5-Me)]LTWQC-NH2; linker 3-12 via mXylylene)
14 | < 10 | CC(=O)N[C@H](C(=O)N[C@@H](Cc1ccc(O)cc1)C(=O)N[C@H]1CSCc2cccc(c2)CSC[C@@H](C(N)=O)NC(=O)CNC(=O)[C@H](Cc2c[nH]c3ccccc23)NC(=O)[C@H]([C@@H](C)O)NC(=O)[C@H](CC(C)C)NC(=O)[C@H](Cc2c[nH]c3ccccc23)NC(=O)[C@H](CC(=O)O)NC(=O)CN(C)C(=O)[C@H](CCC(=O)O)NC1=O)C(C)C [3BP-3304] (Ac-VYCE[Sar]DWLTWGC-NH2; linker 3-12 via mXylylene)
15 | < 10 | CC(=O)N[C@H](C(=O)N[C@@H](Cc1ccc(O)cc1)C(=O)N[C@H]1CSCc2cccc(c2)CSC[C@@H](C(N)=O)NC(=O)[C@H](CCC(N)=O)NC(=O)[C@H](Cc2c[nH]c3ccccc23)NC(=O)CNC(=O)[C@H](CC(C)C)NC(=O)[C@H](Cc2c[nH]c3ccccc23)NC(=O)[C@H](CC(=O)O)NC(=O)CN(C)C(=O)[C@H](CCC(=O)O)NC1=O)C(C)C [3BP-3307] (Ac-VYCE[Sar]DWLGWQC-NH2; linker 3-12 via mXylylene)
16 | 100 to 794 | CC(=O)N[C@H](C(=O)N[C@@H](Cc1ccc(O)cc1)C(=O)N[C@H]1CSCc2cccc(c2)CSC[C@@H](C(N)=O)NC(=O)[C@H](CCC(N)=O)NC(=O)[C@H](Cc2c[nH]c3ccccc23)NC(=O)[C@H]([C@@H](C)O)NC(=O)[C@H](CC(C)C)NC(=O)[C@H](Cc2c[nH]c3ccc(O)cc23)NC(=O)[C@H](CC(=O)O)NC(=O)CN(C)C(=O)[C@H](CCC(=O)O)NC1=O)C(C)C [3BP-3310] (Ac-VYCE[Sar]D[Trp(5-OH)]LTWQC-NH2; linker 3-12 via mXylylene)
17 | 100 to 794 | CC(=O)N[C@H](C(=O)N[C@@H](Cc1ccc(O)cc1)C(=O)N[C@H]1CSCc2cccc(c2)CSC[C@@H](C(N)=O)NC(=O)[C@H](CCC(N)=O)NC(=O)[C@H](Cc2c[nH]c3ccc(Cl)cc23)NC(=O)[C@H]([C@@H](C)O)NC(=O)[C@H](CC(C)C)NC(=O)[C@H](Cc2c[nH]c3ccccc23)NC(=O)[C@H](CC(=O)O)NC(=O)CN(C)C(=O)[C@H](CCC(=O)O)NC1=O)C(C)C [3BP-3312] (Ac-VYCE[Sar]DWLT[Trp(5-Cl)]QC-NH2; linker 3-12 via mXylylene)
